Like-named read-outs stand apart in the source and are kept apart here.
Test: CNS PK study in mice
Type: in vivo
Settings: 30 mg/kg single oral, male mice; for Kp: C57BL/6, mouse, 0.25-2 h post dose
Method: In CNS PK studies, rodents (C57BL/6 mice or Sprague Dawley rats) were administered C101248 by oral gavage at 10 or 30 mg/kg. At specified timepoints post dose (0.5, 1, 2 or 4 h), blood samples were collected and processed to plasma (centrifugation at 5000 rpm, 4 °C for 10 min). Immediately following blood withdrawal, cerebrospinal fluid (CSF) samples were collected from the cisterna magna, whole body perfusion was conducted, and brain samples were collected and weighed. Samples were stored frozen at −80 ± 10 °C until analysis. Plasma, CSF, and brain samples were analysed using a fit for purpose bioanalytical method (LC-MS/MS) against a calibration curve containing QC samples. Brain:plasma and CSF:plasma were calculated based on brain concentration/plasma concentration at the same timepoint. Unbound partition coefficient (Kpu,u) values were calculated based on unbound brain concentration/unbound plasma concentration at the same timepoint. Unbound concentrations were derived by adjusting plasma concentrations for the fraction unbound in plasma based on in vitro plasma protein binging (PPB) values and brain concentrations for the unbound fraction in brain tissue based on in vitro brain tissue binding (BTB) values.

time of maximal concentration (Cmax) (brain, CSF and plasma (all matrices)): 1 h
Kp (CSF / unbound plasma, read-out: CSF:unbound plasma): 0.8 to 1.2
Kp (brain (unbound) / plasma (unbound), read-out: unbound partition coefficient (Kpu,u)): 0.7 to 1.5
SMILES: Nc1nonc1-c1nc2ccccc2n1Cc1ccncc1 [C101248]

Reference: PMC9841576, “Characterisation of C101248: A novel selective THIK-1 channel inhibitor for the modulation of microglial NLRP3-inflammasome” (Neuropharmacology, 2023)
